Experimental data: patent publication US12324927B2, “Methods and systems for photodynamic therapy calculations” (THE TRUSTEES OF THE UNIVERSITY OF PENNSYLVANIA, priority 2018, dated 2025)

Experiment: Clinical ROSED during Photofrin-mediated pleural PDT (light fluence, Photofrin concentration, DCS blood flow)
Type: in vivo, human
Method: Patients with pathologically confirmed epithelioid malignant pleural mesothelioma were enrolled in a phase II randomized clinical trial of extended pleurectomy/decortication with or without Photofrin-mediated PDT. Photofrin (provided by Pinnacle Biologics, Chicago, IL, USA) was administered at 2 mg per kg of body weight as an intravenous infusion approximately 24 hours prior to the anticipated time of intra-operative PDT. After surgically resecting all gross disease, PDT treatment was performed with 630 nm light to a total fluence of 60 J/cm^2 as previously described (24-28). Briefly, the pleural cavity was filled with diluted Intralipid solution to aid with light scattering and 60 J/cm^2 630 nm light was delivered to the pleural cavity via an optical fiber inserted into modified endotracheal tube filled with 0.1% Intralipid. Homogeneous light delivery is accomplished by continuously moving the light source around the pleural cavity b with continuous feedback monitoring of light fluence rate and cumulative fluence provided by 8 isotropic detectors (Medlight, Switzerland) sutured to the chest wall. Four of the eight isotropic detectors were used to monitor the light dose and Photofrin fluorescence simultaneously. Long pass filters (Semrock, Inc., Rochester, NY, USA) were used to block the treatment light before the fluorescence was recorded by 4 single channel spectrometers (Exemplar, B&W Tek, Inc., Newark, DE, USA).
PDT dose dosimeter consists of photodiodes for light fluence rates measurements and spectrometers for fluorescence measurements. More details about PDT dosimeter and the quantification of absolute Photofrin concentration from measured fluorescence spectra can be found in (19).
Measurement of blood flow during clinical PDT: DCS monitoring of tissue blood flow during pleural PDT was implemented using a custom built DCS contact probe as shown in FIG. 15B. The contact probe consists of a side-firing multimode source fiber and three single mode detector fibers polished at 45°. Light from a continuous wave 785-nm laser with long coherence length was delivered through the source fiber, and the reflected diffuse light was collected using the detector fibers located at 0.4, 0.7 and 1.0-cm from the source fiber. Three single photon counting avalanche photodiodes were used to detect the diffuse light in parallel. The DCS probe was mounted onto a clear acrylic rectangle pad with small holes at each corner that allowed it to be sutured adjacent to one of the isotropic detectors measuring light fluence rate and photosensitizer fluorescence data. Tissue blood flow was measured continuously throughout the PDT treatment. The study started with one DCS contact probe for the first 2 patients, and it was later expanded for the next 5 patients to include the second DCS contact probe to enable simultaneous measurements of blood flow at two different pleural sites.
Calculation of [ROS]rx using ROSED: The PDT process is described by a set of kinetic equations which can be simplified to compute the production of [ROS]rx (4, 8, 9, 13). These equations are dependent on the temporal and spatial distribution of light fluence rate (ϕ), photosensitizer concentration ([S0]), ground state oxygen concentration ([^3O2]), oxygen supply rate (g), and the photosensitizer-specific reaction-rate parameters (δ, β, σ, and ξ). The relevant equations are: […]
Since Photofrin concentration and tissue oxygen were measured in this study, only Eq. (A3) is needed to calculate for [ROS]rx. For the calculation of [ROS]rx, the term on the right-hand side of Eq. (A3) is integrated over the time course of PDT treatment using the measured value of [^3O2], [S0], and light fluence rate. In vivo light fluence rate distribution can be estimated from the in-air light fluence rate using a 6-parameter analytic expression (29). Tissue optical properties needed for this calculation were obtained from diffuse reflectance measurements using the multi-fiber contact probe. […]

[1] = average of 12 sites, 7 patients

photobleaching (mean Photofrin concentrations during PDT) (all measurement sites and all patients): no sign of photobleaching | mean Photofrin concentration of all pleural tissues [1]: 6.2 ± 2.1 mg/kg | [Photofrin] (mean corrected concentration per patient and pleural site, 2 mg per kg i.v. about 24 h before PDT, pleural apex): 3.9 mg/kg
Substance: Photofrin
range of calculated [ROS]rx (12 sites, 7 patients): 0.31−1.17 mM | [ROS]rx (at surface, per patient and pleural site, ROSED with blood-flow-derived oxygen, pleural apex): 0.59 mM | mean (standard deviation) calculated [ROS]rx [1]: 0.59 ± 0.25 mM
